# Experimental data: patent US20260191968A1, “PROTAC DEGRADERS OF MLLT1 AND/OR MLLT3” (DARK BLUE THERAPEUTICS LTD, priority 2024, published 2026)
# What was measured:
# MV4-11 cells = assay: MV4-11 cellular proliferative assay, Assay Format B (CTG 2.0, 168 h); format: cell-based; settings: Homo sapiens, 168 h (7 days), CTG 2.0, read-out: IC50 (MV4-11 cellular proliferative assay, Assay format B)
# How it was run: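 MV4-11 cells seeded overnight in IMDM + 10% FBS, then exposed to 10-point, 3-fold dilutions from 1 uM or 100 nM top concentration (0.3% DMSO final) for 168 h at 37 °C. CTG 2.0 luminescence read; % viability vs DMSO control fitted by four-parameter logistic regression.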
# MLLT1 = target: T1, MLLT1 (Homo sapiens, UniProt Q03111); assay: MLLT1 degradation assay in MV4-11 cells (JESS chemiluminescent detection), three concentrations, 24 h; format: cell-based; settings: with respect to DMSO control
# T1 construct: host or cells: MV4-11
# T1 sequence (Q03111 1-559): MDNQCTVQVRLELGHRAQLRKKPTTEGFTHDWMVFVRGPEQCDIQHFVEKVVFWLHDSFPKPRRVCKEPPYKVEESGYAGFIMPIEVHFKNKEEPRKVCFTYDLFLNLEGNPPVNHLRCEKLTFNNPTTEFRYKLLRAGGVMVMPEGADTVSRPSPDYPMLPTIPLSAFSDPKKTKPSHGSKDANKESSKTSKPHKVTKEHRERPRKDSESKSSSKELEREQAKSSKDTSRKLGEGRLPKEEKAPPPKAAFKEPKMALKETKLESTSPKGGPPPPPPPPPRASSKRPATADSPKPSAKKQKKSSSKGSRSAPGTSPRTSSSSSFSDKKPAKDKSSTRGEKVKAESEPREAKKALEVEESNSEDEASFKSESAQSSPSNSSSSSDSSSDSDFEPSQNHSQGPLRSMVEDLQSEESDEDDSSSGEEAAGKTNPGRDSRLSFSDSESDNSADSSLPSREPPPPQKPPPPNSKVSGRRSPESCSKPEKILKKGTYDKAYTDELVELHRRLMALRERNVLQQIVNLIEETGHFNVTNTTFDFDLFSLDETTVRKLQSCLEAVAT
# How it was run: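 MV4-11 cells treated 24 h at 37° C, 5% CO2 with 1000, 100 and 10 nM compound (0.1% DMSO final). MLLT1 quantified by automated capillary chemiluminescent immunodetection; band peak area expressed as % degradation relative to DMSO control.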
Structure (SMILES),IC50 (MV4-11 cells) [nM],MLLT1% Degradation @ 0.01 μM (MLLT1),MLLT1% Degradation @ 0.1 μM (MLLT1),MLLT1% Degradation @ 1 μM (MLLT1)
"CN1CCC[C@@H]1c1cc2cnc(NC(=O)c3ccc(CN4CCN(CC5CCN(c6cccc7c6CN(C6CCC(=O)NC6=O)C7=O)CC5)CC4)cc3)cc2[nH]1 (stereo partly drawn) [Example 194, 4-((4-((1-(2-(2,6-dioxopiperidin-3-yl)-1-oxoisoindolin-4-yl)piperidin-4-yl)methyl)piperazin-1-yl)methyl)-N-(2-((R)-1-methylpyrrolidin-2-yl)-1H-pyrrolo[3,2-c]pyridin-6-yl)benzamide]",≤ 100,B (Category B: 50% ≤ B < 75% degradation),A (Category A: A ≥ 75% degradation),A (Category A: A ≥ 75% degradation)
"CN1CCC[C@@H]1c1cc2cnc(NC(=O)c3ccc(N4CCN(CC5CCN(c6cccc7c6CN(C6CCC(=O)NC6=O)C7=O)CC5)CC4)cc3)cc2[nH]1 (mixture of isomers) [Example 116, 4-(4-((1-(2-(2,6-dioxopiperidin-3-yl)-1-oxoisoindolin-4-yl)piperidin-4-yl)methyl)piperazin-1-yl)-N-(2-((R)-1-methylpyrrolidin-2-yl)-1H-pyrrolo[3,2-c]pyridin-6-yl)benzamide]",≤ 100,B (Category B: 50% ≤ B < 75% degradation),A (Category A: A ≥ 75% degradation),A (Category A: A ≥ 75% degradation)
"CN1CCC[C@@H]1c1cc2cnc(NC(=O)c3ccc(N4CCN(C(=O)CC5CCN(c6cccc7c6CN(C6CCC(=O)NC6=O)C7=O)CC5)CC4)nc3)cc2[nH]1 (stereo partly drawn) [Example 108, 6-(4-(2-(1-(2-(2,6-dioxopiperidin-3-yl)-1-oxoisoindolin-4-yl)piperidin-4-yl)acetyl)piperazin-1-yl)-N-(2-((R)-1-methylpyrrolidin-2-yl)-1H-pyrrolo[3,2-c]pyridin-6-yl)nicotinamide]",≤ 100,A (Category A: A ≥ 75% degradation),A (Category A: A ≥ 75% degradation),B (Category B: 50% ≤ B < 75% degradation)
"CN1CCC[C@@H]1c1cc2cnc(NC(=O)c3ccc(CCC4CCN(c5cccc6c5CN(C5CCC(=O)NC5=O)C6=O)CC4)cc3)cc2[nH]1 (stereo partly drawn) [Example 177, 4-(2-(1-(2-(2,6-dioxopiperidin-3-yl)-1-oxoisoindolin-4-yl)piperidin-4-yl)ethyl)-N-(2-((R)-1-methylpyrrolidin-2-yl)-1H-pyrrolo[3,2-c]pyridin-6-yl)benzamide]",≤ 100,A (Category A: A ≥ 75% degradation),A (Category A: A ≥ 75% degradation),A (Category A: A ≥ 75% degradation)
"CN1CCC[C@@H]1c1cc2cnc(NC(=O)c3ccc(OC4CCN(CC5CCN(c6cccc7c6CN(C6CCC(=O)NC6=O)C7=O)CC5)CC4)cc3)cc2[nH]1 (mixture of isomers) [Example 121, 4-((1-((1-(2-(2,6-dioxopiperidin-3-yl)-1-oxoisoindolin-4-yl)piperidin-4-yl)methyl)piperidin-4-yl)oxy)-N-(2-((R)-1-methylpyrrolidin-2-yl)-1H-pyrrolo[3,2-c]pyridin-6-yl)benzamide]",≤ 100,A (Category A: A ≥ 75% degradation),A (Category A: A ≥ 75% degradation),A (Category A: A ≥ 75% degradation)
